As usually defined, the IC50 is the concentration needed to halve the response being measured. A high value points to weaker potency in that assay.

One compound from ChEMBL document CHEMBL5678809, “Preclinical characterization of GLPG0634, a selective inhibitor of JAK1, for the treatment of inflammatory diseases” (J Immunol, 2013) can be followed below.

For the experiment, the target named is Serine/threonine-protein kinase PAK 6 (Homo sapiens, UniProt Q9NQU5). The experiment can be described thus: Inhibition of PAK6 (unknown origin).
Serine/threonine-protein kinase PAK 6, sequence (Q9NQU5 whole entry): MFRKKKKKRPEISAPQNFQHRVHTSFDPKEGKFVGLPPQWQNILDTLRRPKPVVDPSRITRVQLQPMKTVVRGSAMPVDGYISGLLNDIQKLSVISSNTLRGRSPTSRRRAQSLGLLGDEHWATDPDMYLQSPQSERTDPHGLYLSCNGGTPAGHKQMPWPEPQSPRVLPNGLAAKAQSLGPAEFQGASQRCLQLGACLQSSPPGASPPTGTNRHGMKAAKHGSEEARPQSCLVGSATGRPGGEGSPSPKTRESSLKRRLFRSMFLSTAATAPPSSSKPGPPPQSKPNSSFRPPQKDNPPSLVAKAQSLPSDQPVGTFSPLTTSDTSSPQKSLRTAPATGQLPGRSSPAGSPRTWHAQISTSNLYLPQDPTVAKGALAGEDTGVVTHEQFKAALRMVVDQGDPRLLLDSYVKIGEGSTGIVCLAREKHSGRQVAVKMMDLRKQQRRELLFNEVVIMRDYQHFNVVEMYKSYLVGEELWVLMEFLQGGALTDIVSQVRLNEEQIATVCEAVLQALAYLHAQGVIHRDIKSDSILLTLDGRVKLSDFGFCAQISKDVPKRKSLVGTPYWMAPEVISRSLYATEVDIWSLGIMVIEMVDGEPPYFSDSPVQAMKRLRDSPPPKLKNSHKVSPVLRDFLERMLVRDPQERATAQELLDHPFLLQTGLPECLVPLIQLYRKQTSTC

`O=C(Nc1nc2cccc(-c3ccc(CN4CCS(=O)(=O)CC4)cc3)n2n1)C1CC1` [FILGOTINIB] showed an IC50 greater than 10 µM.
